Results on nine compounds are retold here after PubChem BioAssay (NCI).

Several values for one entry are separate records, joined by “and”; a condition that tells them apart may be missing. Identical values can stand only once.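 Interpolation was linear, between the two tested concentrations surrounding the appropriate level; five concentrations were tested over 48 hours in 96-well plates. GI50: concentration for 50% inhibition of growth. TGI denotes the concentration required for complete inhibition of growth.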

Among the test systems are SR leukemia; SN12C renal; K-562 leukemia; SNB-19 CNS; NCI-H522 lung; HL-60(TB) leukemia; HCC-2998 colon; MALME-3M melanoma; HCT-15 colon; U251 CNS.
What all share (assay): inhibition of tumour cell growth, NCI panel, 48 h

`O=C(N/N=C\c1ccc(N(CCCl)CCCl)cc1Cl)c1cccnc1`: the GI50 in the experiment with SR leukemia was 7.23 µM; in the experiment on SN12C renal it was 24.1 µM; in the experiment with K-562 leukemia it was 7.38 µM; in the experiment with SNB-19 CNS, 45.1 µM; with NCI-H522 lung, 21.4 µM; in the experiment on HL-60(TB) leukemia it was 7.5 µM. The GI50 is 17.2 µM in the experiment on HCC-2998 colon, 21.4 µM in the experiment with MALME-3M melanoma, 29 µM in the experiment on HCT-15 colon and 10.4 µM in the experiment on U251 CNS. Further, the TGI with SR leukemia is 69.6 µM; in the experiment with SN12C renal, over 84.4 µM; with K-562 leukemia, over 100 µM; in the experiment with SNB-19 CNS it was over 100 µM; in the experiment with NCI-H522 lung, 86 µM; in the experiment on HL-60(TB) leukemia, 36.5 µM. In addition, the TGI in the experiment on HCC-2998 colon was 68.1 µM; in the experiment on MALME-3M melanoma, 64.2 µM; in the experiment on HCT-15 colon, over 100 µM; in the experiment on U251 CNS, 94.1 µM.

As to `Oc1c(N=Nc2ccccc2)c2ccccc2c2ccc3ccccc3c12`, the TGI with SR leukemia is 32.6 µM; in the experiment on SN12C renal, over 100 µM; in the experiment on K-562 leukemia it was over 100 µM; in the experiment with SNB-19 CNS, over 100 µM; in the experiment with NCI-H522 lung, over 100 µM; in the experiment with HL-60(TB) leukemia, over 100 µM. The TGI in the experiment on HCC-2998 colon, in the experiment with MALME-3M melanoma, in the experiment on HCT-15 colon and in the experiment on U251 CNS was over 100 µM in each case.

`CNc1nc(N(C)C)nc(N(C)C)n1`: the GI50 with SR leukemia was over 100 µM; in the experiment with SN12C renal, > 100 µM and 2050 µM; in the experiment on K-562 leukemia, > 100 µM and 831 µM; in the experiment on SNB-19 CNS, > 100 µM and 1210 µM; in the experiment on NCI-H522 lung it was > 100 µM and 874 µM; in the experiment with HL-60(TB) leukemia, > 100 µM and 2350 µM. For the same compound, the GI50 is > 100 µM and 1520 µM in the experiment with HCC-2998 colon; > 100 µM and 1160 µM with MALME-3M melanoma; > 100 µM and 936 µM in the experiment with HCT-15 colon; > 100 µM and 1150 µM in the experiment on U251 CNS. For the same compound, the TGI was over 100 µM with SR leukemia; > 100 µM and 3960 µM in the experiment with SN12C renal; > 100 µM and 3230 µM with K-562 leukemia; > 100 µM and 3780 µM with SNB-19 CNS; > 100 µM and 3370 µM with NCI-H522 lung; > 100 µM and 4200 µM with HL-60(TB) leukemia. In addition, the TGI was > 100 µM and 3590 µM in the experiment on HCC-2998 colon; > 100 µM and 2110 µM with MALME-3M melanoma; > 100 µM and 2770 µM with HCT-15 colon; > 100 µM and 2950 µM in the experiment with U251 CNS.

Regarding `OC(CNC1CCCC1)Cn1c2ccccc2c2ccccc21` (centres undefined), the GI50 is over 100 µM with SR leukemia; 44.2 µM in the experiment with SN12C renal; over 100 µM in the experiment with K-562 leukemia; 29.4 µM in the experiment with SNB-19 CNS; 20 µM in the experiment with NCI-H522 lung; over 100 µM in the experiment on HL-60(TB) leukemia. For the same compound, the GI50 with HCC-2998 colon was over 100 µM; in the experiment on MALME-3M melanoma it was 37 µM; in the experiment on HCT-15 colon, 80.5 µM; in the experiment on U251 CNS, 21.5 µM. The TGI is over 100 µM in the experiment with SR leukemia; over 100 µM with SN12C renal; over 100 µM with K-562 leukemia; over 100 µM in the experiment on SNB-19 CNS; 82.2 µM in the experiment with NCI-H522 lung; over 100 µM in the experiment with HL-60(TB) leukemia. The TGI was over 100 µM in the experiment on HCC-2998 colon, over 100 µM in the experiment with MALME-3M melanoma, over 100 µM with HCT-15 colon and 56.6 µM in the experiment with U251 CNS.

`O=P1(O)c2ccccc2Nc2cc(C(F)(F)F)ccc21`: the TGI in the experiment on SR leukemia, in the experiment with SN12C renal, in the experiment on K-562 leukemia, with SNB-19 CNS, in the experiment with NCI-H522 lung and with HL-60(TB) leukemia was over 100 µM in each case. The TGI in the experiment with HCC-2998 colon, with MALME-3M melanoma, with HCT-15 colon and in the experiment on U251 CNS was over 100 µM each time.

For the compound `O=Cc1ccc(O)c2ncccc12`, the GI50 in the experiment on SR leukemia was 0.858 µM; in the experiment on SN12C renal, 3.81 µM; in the experiment on K-562 leukemia, 3.29 µM; in the experiment with SNB-19 CNS, 6.03 µM; with NCI-H522 lung, 25.5 µM; with HCC-2998 colon, 11.8 µM. The GI50 in the experiment with MALME-3M melanoma is 3.62 µM; with HCT-15 colon, 1.29 µM; in the experiment on U251 CNS, 2.4 µM. Besides, the TGI is over 31.8 µM with SR leukemia; over 100 µM with SN12C renal; over 100 µM with K-562 leukemia; over 100 µM in the experiment on SNB-19 CNS; 90.8 µM in the experiment with NCI-H522 lung; over 100 µM in the experiment on HL-60(TB) leukemia. The TGI in the experiment on HCC-2998 colon was 41.8 µM; in the experiment on MALME-3M melanoma, 30.4 µM; in the experiment on HCT-15 colon, 18.3 µM; with U251 CNS, 23.3 µM.

Consider `Cc1ccc(N2C(=O)/C(=C/c3ccc(N(CCC#N)CCC#N)cc3C)N=C2c2cc([N+](=O)[O-])ccc2Cl)cc1`, for which the TGI in the experiment with SR leukemia, with SN12C renal, in the experiment with K-562 leukemia, with SNB-19 CNS, with NCI-H522 lung and with HL-60(TB) leukemia was over 100 µM each time. In addition, the TGI in the experiment with HCC-2998 colon, with MALME-3M melanoma, in the experiment on HCT-15 colon and in the experiment with U251 CNS was over 100 µM each time.

`C[CH2][Sn]([CH2]C)([O]C(=O)c1cccc(F)c1)[O][Sn]([CH2]C)([CH2]C)[O]C(=O)c1cccc(F)c1`: the GI50 in the experiment with SR leukemia is 28 µM; with SN12C renal, 17 µM; in the experiment with K-562 leukemia, 18 µM; with SNB-19 CNS it was 20.2 µM; with NCI-H522 lung, 1.32 µM; in the experiment with HL-60(TB) leukemia it was 26.6 µM. For the same compound, the GI50 in the experiment on HCC-2998 colon was 76.1 µM; with MALME-3M melanoma, 14.1 µM; with HCT-15 colon, 21 µM; with U251 CNS, 16.9 µM. Also, the TGI in the experiment with SR leukemia is over 100 µM; with SN12C renal it was 31.3 µM; in the experiment on K-562 leukemia, 93.4 µM; with SNB-19 CNS it was 39.5 µM; with NCI-H522 lung, 2.65 µM; with HL-60(TB) leukemia, 96.5 µM. The TGI in the experiment on HCC-2998 colon is over 100 µM; with MALME-3M melanoma it was 27.3 µM; in the experiment on HCT-15 colon it was 43.3 µM; with U251 CNS, 30.6 µM.

As for `C=C1CC[C@@H]2[C@](C)(COC(C)=O)[C@H](OC(C)=O)CC[C@@]2(C)[C@@H]1C/C=C1/C(=O)OC[C@H]1OC(C)=O`, the GI50 is 2.59 µM in the experiment with SR leukemia; 3.07 µM in the experiment with SN12C renal; 2.63 µM in the experiment on K-562 leukemia; 10.8 µM with SNB-19 CNS; 1.52 µM in the experiment with NCI-H522 lung; 2.61 µM in the experiment on HL-60(TB) leukemia. Moreover, the GI50 with HCC-2998 colon is 12.2 µM; in the experiment with MALME-3M melanoma, 2.98 µM; in the experiment on HCT-15 colon, 1.58 µM; with U251 CNS, 6.09 µM. Besides, the TGI in the experiment on SR leukemia was 10.1 µM; in the experiment with SN12C renal, 13.3 µM; in the experiment on K-562 leukemia, 32.1 µM; with SNB-19 CNS, 24.5 µM; in the experiment on NCI-H522 lung, 3.63 µM; in the experiment on HL-60(TB) leukemia it was 6.78 µM. Also, the TGI in the experiment with HCC-2998 colon turned out to be 27.3 µM; in the experiment with MALME-3M melanoma it was 7.95 µM; in the experiment on HCT-15 colon, 4.33 µM; with U251 CNS, 19.3 µM.
